# Reference: article PMC11201828, “A Novel Dimeric Short Peptide Derived from α-Defensin-Related Rattusin with Improved Antimicrobial and DNA-Binding Activities” (Biomolecules, 2024)
# Like-named read-outs stand apart in the source and are kept apart here. Positions of bridges follow the written chain, without caps; N, C: chain ends. Residues, ends and D or L forms follow the SMILES beside them. Chains are numbered I, II in the order given. No end group written: not given here.
# What was measured:
# MRSA CCARM 3089 = assay type: cell-based, methicillin-resistant Staphylococcus aureus; details: CCARM 3089, 24 h
# Description: (§1) The minimal inhibitory concentrations (MICs) of the peptides were determined following the broth microdilution method recommended by the Clinical and Laboratory Standards Institute (CLSI). Briefly, bacteria in their mid-logarithmic growth phase were diluted in Mueller–Hinton broth (MHB) (Difco, Franklin Lakes, NJ, USA) and aliquoted into a 96-well microtiter plate at a density of 4 × 10^6 CFU/well. The assay included both Gram-negative bacteria (Escherichia coli, Salmonella typhimurium, and Pseudomonas aeruginosa) and Gram-positive bacteria (Bacillus subtilis, Staphylococcus aureus, and Staphylococcus epidermidis), as well as methicillin-resistant Staphylococcus aureus strains (MRSA: CCARM 3089, CCARM 3090, CCARM 3095). The samples were subjected to a two-fold serial dilution before being added to the wells, and the plate was incubated at 37 °C for 24 h. The MIC was defined as the lowest peptide concentration that prevented visible bacterial growth. All experiments were conducted in triplicate and included appropriate growth and sterility controls.
# MRSA CCARM 3090 = assay type: cell-based, methicillin-resistant Staphylococcus aureus; details: CCARM 3090, 24 h
# Description: as §1
# MRSA CCARM 3095 = assay type: cell-based, methicillin-resistant Staphylococcus aureus; details: CCARM 3095, 24 h
# Description: as §1
# Bacillus subtilis = assay type: cell-based; details: 24 h
# Description: as §1
# Escherichia coli = assay type: cell-based; details: 24 h
# Description: as §1
# Pseudomonas aeruginosa = assay type: cell-based; details: 24 h
# Description: as §1
# Salmonella typhimurium = assay type: cell-based; details: 24 h
# Description: as §1
# Staphylococcus aureus = assay type: cell-based; details: 24 h
# Description: as §1
# [1] = tested on: Staphylococcus epidermidis; assay type: cell-based; details: 24 h
# Description: as §1
# bacterial strains = assay type: cell-based; details: strain not given; see Tables 1 and 2
# Description: as §1
# [2] = tested on: S. aureus cytoplasmic membrane; assay: Membrane depolarization assay, DiSC3-(5) dye; assay type: cell-based, Staphylococcus aureus; details: intact S. aureus; 32 µM F2, 4 µM melittin, 16 µM buforin-2; peptide added after 300 s; Figure 2
# Description: The cytoplasmic membrane depolarization activity of the peptides was assessed using the membrane-potential-sensitive dye DiSC3-(5), following methodologies previously described in the literature. Staphylococcus aureus was cultured in Luria–Bertani (LB) broth at 37 °C until reaching an optical density (O.D.) at 600 nm of 0.3–0.4, indicative of mid-logarithmic phase growth. The cells were then washed with a buffer containing 20 mM glucose and 5 mM HEPES, and the cell suspension was diluted to an O.D. 600 of 0.05 in the same buffer. Potassium chloride (KCl) was added to achieve a final concentration of 100 mM to equilibrate potassium ion levels. The concentrations used for each peptide in our membrane depolarization assays were based on their respective MICs: 32 µM for F2, 4 µM for Melittin, and 16 µM for Buferin-2.
# Fluorescence was monitored using an F-4500 FL fluorescence spectrophotometer (Shimadzu, Kyoto, Japan) with excitation and emission wavelengths set at 622 nm and 670 nm, respectively. Melittin, known for its membrane-disrupting properties, served as a positive control, while buforin-2, which translocates across membranes without causing depolarization, acted as a negative control. Both melittin and buforin-2 were tested at concentrations twice their minimal inhibitory concentration (MIC) levels.
# S. aureus cell membranes = assay: SYTOX Green uptake assay; assay type: cell-based, Staphylococcus aureus; details: 32 µM F2, 4 µM melittin, 16 µM buforin-2, Figure 3
# Description: The membrane permeabilization activity of the peptides was determined using the SYTOX Green uptake assay, as described previously. S. aureus was cultured in LB broth at 37 °C until it reached an optical density (O.D.) at 600 nm of 0.4, indicative of the mid-logarithmic phase. The cells were then washed and diluted to an O.D. 600 of 0.05 using 1× PBS buffer. The dye (SYTOX Green nucleic acid stain) was added to the bacterial suspension at a concentration of […], and the mixture was incubated at 4 °C for 18 h with agitation in the dark. The SYTOX Green-treated bacteria were placed in a quartz cell, where they were simultaneously exposed to the positive control melittin (2× MIC), the negative control buforin-2 (2× MIC), and the F2 dimer (2× MIC). An F-4500 FL fluorescence spectrophotometer (Shimadzu, Kyoto, Japan) was used to monitor fluorescence (excitation 485 nm, emission 520 nm).
# E. coli ML-35 = assay: ONPG hydrolysis assay (inner membrane permeability); assay type: cell-based, Escherichia coli; details: 32 µM F2, 4 µM melittin, 16 µM buforin-2, Figure 4
# Description: The internal membrane permeability was assessed using the ONPG hydrolysis assay, as described previously. E. coli ML-35p, which constitutively expresses cytoplasmic β-galactosidase and periplasmic β-lactamase, is resistant to ampicillin and deficient in lactose permease. E. coli ML-35 was incubated in LB broth containing ampicillin at 37 °C until the optical density (O.D.) at 600 nm reached 1.0. The cells were then washed with a buffer consisting of 97% 1× PBS and 3% LB and diluted to an O.D. 600 of 0.4 in the same buffer. A mixture of 50 μL of serially diluted peptide and 20 μL of dye (ONPG, final concentration 3 mM) was added to 100 μL of the bacterial suspension in a sterilized 96-well plate. Melittin served as a positive control, while buforin-2 was used as a negative control. The hydrolysis of ONPG was measured using a PHOMO Elisa reader (Autobio, Zhengzhou, China) at 405 nm for each time period.
# plasmid DNA (pHIS2) = assay: DNA-binding gel retardation assay; details: plasmid pHIS2 145 μg/mL, 37 °C, 1 h, 1% agarose gel; Figure 5
# Description: We evaluated the DNA-binding ability of F2 and F2 (C4S) monomeric peptides using gel retardation experiments. The concentration of plasmid DNA (pHIS2) was fixed at 145 μg/mL. The peptide was serially diluted in a binding buffer consisting of 10 mM Tris-HCl (pH 8.0), 5% glucose, 50 μg/mL BSA, 1 mM EDTA, and 20 mM KCl. This solution was then mixed with the DNA and incubated at 37 °C for 1 h. After incubation, the DNA–peptide mixture was stained with DNA gel loading dye. The samples were analyzed using 1% agarose gel electrophoresis in 0.5× TAE buffer. Plasmid bands were detected with a UV illuminator (Bio-Rad, Hercules, CA, USA).
compound,measurement,setting,value
CC(C)[C@@H]1NC(=O)[C@H](CCCNC(=N)N)NC(=O)[C@H](CCCNC(=N)N)NC(=O)[C@H]([C@@H](C)O)NC(=O)[C@H](CC(N)=O)NC(=O)[C@H](CCCNC(=N)N)NC(=O)[C@@H](NC(=O)[C@@H](NC(=O)[C@H](CCCNC(=N)N)NC(=O)[C@@H](N)CCCNC(=N)N)C(C)C)CSSC[C@@H](C(=O)N[C@@H](CCCNC(=N)N)C(=O)N[C@@H](CC(N)=O)C(=O)N[C@H](C(N)=O)[C@@H](C)O)NC1=O [F2-AH] (H-RRVCRNTRRVCRNT-NH2; disulfide 4-11; N-terminus assumed),MIC,MRSA CCARM 3089,29 µg/mL
same,MIC,MRSA CCARM 3090,29 µg/mL
same,MIC,MRSA CCARM 3095,58 µg/mL
same,MIC,Bacillus subtilis,29 µg/mL
same,MIC,Escherichia coli,15 µg/mL
same,MIC,Pseudomonas aeruginosa,15 µg/mL
same,MIC,Salmonella typhimurium; murium,15 µg/mL
same,MIC,Staphylococcus aureus,29 µg/mL
same,MIC,[1],15 µg/mL
same,MIC,bacterial strains,15 µg/mL
CC(C)[C@H](NC(=O)[C@@H]1CSSC[C@H](NC(=O)[C@@H](NC(=O)[C@H](CCCNC(=N)N)NC(=O)[C@@H](N)CCCNC(=N)N)C(C)C)C(=O)N[C@@H](CCCNC(=N)N)C(=O)N[C@@H](CC(N)=O)C(=O)N[C@@H]([C@@H](C)O)C(=O)N[C@@H]([C@@H](C)O)C(=O)N[C@@H](CC(N)=O)C(=O)N[C@@H](CCCNC(=N)N)C(=O)N1)C(=O)N[C@@H](CCCNC(=N)N)C(=O)N[C@@H](CCCNC(=N)N)C(N)=O [F2-PH] (H-RRVCRNTTNRCVRR-NH2; disulfide 4-11; N-terminus assumed),MIC,MRSA CCARM 3089,29 µg/mL
same,MIC,MRSA CCARM 3090,58 µg/mL
same,MIC,MRSA CCARM 3095,29 µg/mL
same,MIC,Bacillus subtilis,29 µg/mL
same,MIC,Escherichia coli,15 µg/mL
same,MIC,Pseudomonas aeruginosa,15 µg/mL
same,MIC,Salmonella typhimurium; murium,15 µg/mL
same,MIC,Staphylococcus aureus,29 µg/mL
same,MIC,[1],15 µg/mL
same,MIC,bacterial strains,15 µg/mL
"CC[C@H](C)[C@H](NC(=O)[C@@H]1CSSC[C@H](NC(=O)[C@H](CCC(N)=O)NC(=O)[C@@H](N)CC(C)C)C(=O)N[C@@H](CO)C(=O)N[C@H]2CSSC[C@H](NC(=O)[C@H]([C@@H](C)O)NC(=O)[C@H](CC(N)=O)NC(=O)[C@H](CCCNC(=N)N)NC(=O)[C@@H]3CSSC[C@H](NC(=O)[C@H](C(C)C)NC(=O)[C@H](CCCNC(=N)N)NC(=O)[C@H](CCCNC(=N)N)NC2=O)C(=O)N[C@@H](CCCNC(=N)N)C(=O)N[C@@H](CC(N)=O)C(=O)N[C@@H]([C@@H](C)O)C(=O)N[C@H]2CSSC[C@H](NC(=O)[C@H](CO)NC(=O)[C@@H](NC(=O)[C@H](CCC(N)=O)NC(=O)[C@@H](N)CC(C)C)CSSC[C@@H](C(=O)N[C@H](C(=O)N[C@@H](CCCNC(=N)N)C(N)=O)[C@@H](C)CC)NC(=O)[C@H](CO)NC2=O)C(=O)N[C@@H](CCCNC(=N)N)C(=O)N[C@@H](CCCNC(=N)N)C(=O)N[C@@H](C(C)C)C(=O)N3)C(=O)N[C@@H](CO)C(=O)N1)C(=O)N[C@@H](CCCNC(=N)N)C(N)=O [F4] (I: H-LQCSCRRVCRNTCSCIR-NH2 / II: H-LQCSCRRVCRNTCSCIR-NH2; disulfide I:3-II:15, I:5-II:13, I:9-II:9, I:13-II:5, I:15-II:3 (inferred); N-terminus assumed)",MIC,Escherichia coli,32 µg/mL
same,MIC,Staphylococcus aureus,64 µg/mL
CC[C@H](C)[C@H](NC(=O)CN)C(=O)NCC(=O)N[C@@H](C)C(=O)N[C@H](C(=O)N[C@@H](CC(C)C)C(=O)N[C@@H](CCCCN)C(=O)N[C@H](C(=O)N[C@@H](CC(C)C)C(=O)N[C@H](C(=O)N[C@H](C(=O)NCC(=O)N[C@@H](CC(C)C)C(=O)N1CCC[C@H]1C(=O)N[C@@H](C)C(=O)N[C@@H](CC(C)C)C(=O)N[C@H](C(=O)N[C@@H](CO)C(=O)N[C@@H](Cc1c[nH]c2ccccc12)C(=O)N[C@H](C(=O)N[C@@H](CCCCN)C(=O)N[C@@H](CCCNC(=N)N)C(=O)N[C@@H](CCCCN)C(=O)N[C@@H](CCCNC(=N)N)C(=O)N[C@@H](CCC(N)=O)C(=O)N[C@@H](CCC(N)=O)C(N)=O)[C@@H](C)CC)[C@@H](C)CC)[C@@H](C)O)[C@@H](C)O)C(C)C)C(C)C [Melittin],cytoplasmic membrane depolarization (DiSC3-(5) fluorescence),[2],complete depolarization
same,SYTOX Green uptake (fluorescence intensity),S. aureus cell membranes,significant increase in fluorescence intensity
same,ONPG hydrolysis (absorbance at 405 nm),E. coli ML-35,change in absorbance
Buforin-2,cytoplasmic membrane depolarization (DiSC3-(5) fluorescence),[2],failed to induce any change in membrane potential
same,SYTOX Green uptake (fluorescence intensity),S. aureus cell membranes,did not show a similar increase in fluorescence intensity
same,ONPG hydrolysis (absorbance at 405 nm),E. coli ML-35,did not alter the absorbance
same,peptide concentration giving DNA band retardation,plasmid DNA (pHIS2),2 µM
IRLSRSTYAS-NH2 [F3],MIC,Escherichia coli,>590 µg/mL
same,MIC,Staphylococcus aureus,>590 µg/mL
same,MIC,bacterial strains,> 590 µg/mL
LRVRRTLQ-NH2 [F1],MIC,Escherichia coli,67 µg/mL
same,MIC,Staphylococcus aureus,>500 µg/mL
RRVSRNT-NH2 [F2 (C15S)],MIC,MRSA CCARM 3089,>114 µg/mL
same,MIC,MRSA CCARM 3090,>114 µg/mL
same,MIC,MRSA CCARM 3095,>114 µg/mL
same,peptide concentration giving DNA band retardation,plasmid DNA (pHIS2),> 16 µM
same,MIC,"Bacillus subtilis; Bacillus subtilis, broth microdilution, MHB, 37 °C, triplicate",>227 µg/mL
same,MIC,"Escherichia coli; Escherichia coli, broth microdilution, MHB, 4 × 10^6 CFU/well, 37 °C, triplicate, no deviations",>227 µg/mL
same,MIC,"Pseudomonas aeruginosa; Pseudomonas aeruginosa, broth microdilution, MHB, 37 °C, triplicate",>227 µg/mL
same,MIC,"Salmonella typhimurium; Salmonella typhimurium, broth microdilution, MHB, 37 °C, triplicate",>227 µg/mL
same,MIC,"Staphylococcus aureus; Staphylococcus aureus, broth microdilution, MHB, 37 °C, triplicate",>227 µg/mL
same,MIC,"[1]; Staphylococcus epidermidis, broth microdilution, MHB, 37 °C, triplicate",>227 µg/mL
same,MIC,bacterial strains,> 227 µg/mL
